Assay results from patent US10696672B2 (Pliant Therapeutics, Inc., priority 2016, dated 2020).

Target: recombinant human integrin αvβ6 (Homo sapiens (Human), UniProt P06756+P18564)
Assay: Solid phase integrin αvβ6 binding assay
Conditions: plate-coated integrin; recombinant TGFβ1 LAP 0.67 ug/ml as ligand; 2 hours at 25° C.; read-out: αvβ6 Inhibition IC50 (nM) - range
Protocol: Example B1—Solid Phase Integrin αvβ6 Binding Assay
Microplates were coated with recombinant human integrin αvβ6 (2 ug/ml) in PBS (100 ul/well 25° C., overnight). The coating solution was removed, washed with wash buffer (0.05% Tween 20; 0.5 mM MnCl2; in 1×TBS). Plate was blocked with 200 ul/well of Block Buffer (1% BSA; 5% sucrose; 0.5 mM MnCl2; in 1×TBS) at 37° C. for 2 h. Dilutions of testing compounds and recombinant TGFβ1 LAP (0.67 ug/ml) in binding buffer (0.05% BSA; 2.5% sucrose; 0.5 mM MnCl2; in 1×TBS) were added. The plate was incubated for 2 hours at 25° C., washed, and incubated for 1 hour with Biotin-Anti-hLAP. Bound antibody was detected by peroxidase-conjugated streptavidin. The IC50 values for testing compounds were calculated by a four-parameter logistic regression.
The compounds tested were compound samples prepared according to procedures described in the Synthetic Examples section, with the stereochemical purity as indicated in the Examples indicated.

Sequence of recombinant human integrin αvβ6 (P06756 31-992): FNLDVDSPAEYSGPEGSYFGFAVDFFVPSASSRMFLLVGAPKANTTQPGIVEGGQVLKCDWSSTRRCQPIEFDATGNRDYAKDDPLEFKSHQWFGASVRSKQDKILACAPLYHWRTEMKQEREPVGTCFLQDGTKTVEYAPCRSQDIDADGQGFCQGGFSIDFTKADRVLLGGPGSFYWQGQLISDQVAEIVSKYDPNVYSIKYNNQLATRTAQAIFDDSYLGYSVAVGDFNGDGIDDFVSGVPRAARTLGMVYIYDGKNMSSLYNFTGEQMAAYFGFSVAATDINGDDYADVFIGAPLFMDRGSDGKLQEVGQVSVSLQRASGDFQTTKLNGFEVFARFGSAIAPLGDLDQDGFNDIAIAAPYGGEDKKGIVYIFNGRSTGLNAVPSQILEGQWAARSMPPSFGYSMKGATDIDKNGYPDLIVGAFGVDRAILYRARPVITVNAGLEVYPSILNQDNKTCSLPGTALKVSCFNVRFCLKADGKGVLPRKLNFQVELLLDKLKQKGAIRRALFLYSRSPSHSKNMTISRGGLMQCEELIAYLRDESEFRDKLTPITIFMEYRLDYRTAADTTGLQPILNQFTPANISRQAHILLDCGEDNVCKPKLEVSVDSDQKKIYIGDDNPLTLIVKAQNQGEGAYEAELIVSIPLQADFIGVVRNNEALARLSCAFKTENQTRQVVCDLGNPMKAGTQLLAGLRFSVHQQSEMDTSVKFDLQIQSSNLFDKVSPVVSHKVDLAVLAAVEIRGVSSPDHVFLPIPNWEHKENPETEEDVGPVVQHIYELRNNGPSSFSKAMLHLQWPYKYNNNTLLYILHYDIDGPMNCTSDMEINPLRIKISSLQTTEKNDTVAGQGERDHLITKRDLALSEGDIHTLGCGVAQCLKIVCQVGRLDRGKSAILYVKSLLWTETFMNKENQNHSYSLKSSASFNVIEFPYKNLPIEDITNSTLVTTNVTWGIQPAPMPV
Sequence of recombinant human integrin αvβ6 (P18564 22-707): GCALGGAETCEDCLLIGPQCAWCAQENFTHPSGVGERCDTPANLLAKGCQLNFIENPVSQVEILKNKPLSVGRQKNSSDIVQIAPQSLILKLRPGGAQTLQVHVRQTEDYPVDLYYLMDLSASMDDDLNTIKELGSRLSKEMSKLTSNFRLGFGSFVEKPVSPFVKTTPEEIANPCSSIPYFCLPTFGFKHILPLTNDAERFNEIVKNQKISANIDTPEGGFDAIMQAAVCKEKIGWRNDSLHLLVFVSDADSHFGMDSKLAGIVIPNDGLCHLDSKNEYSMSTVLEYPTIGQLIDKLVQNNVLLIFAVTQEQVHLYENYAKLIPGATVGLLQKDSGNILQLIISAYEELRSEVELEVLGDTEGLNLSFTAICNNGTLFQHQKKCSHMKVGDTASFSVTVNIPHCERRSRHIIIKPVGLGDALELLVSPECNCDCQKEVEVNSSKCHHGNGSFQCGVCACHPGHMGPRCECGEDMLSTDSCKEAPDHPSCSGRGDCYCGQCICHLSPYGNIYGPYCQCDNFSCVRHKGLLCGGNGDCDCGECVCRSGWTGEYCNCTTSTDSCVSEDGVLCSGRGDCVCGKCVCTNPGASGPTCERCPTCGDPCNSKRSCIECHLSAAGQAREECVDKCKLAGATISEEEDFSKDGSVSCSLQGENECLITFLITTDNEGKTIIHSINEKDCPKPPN

SMILES	IC50 [nM]
O=C(O)[C@H](CCN1CC[C@@H](CCc2ccc3c(n2)NCCC3)C1)NC(=O)[C@@H]1CCN1Cc1ccccc1 [Compound 81]	50 to 250
Cc1cc(C)n(-c2cccc(C(=O)N[C@H](CCN3CC[C@@H](CCc4ccc5c(n4)NCCC5)C3)C(=O)O)c2)n1 [Compound 13c, (R)-2-(3-(3,5-dimethyl-1H-pyrazol-1-yl)benzamido)-4-((R)-3-(2-(5,6,7,8-tetrahydro-1,8-naphthyridin-2-yl)ethyl)pyrrolidin-1-yl)butanoic acid]	< 50
O=C(N[C@@H](CCN1CCC[C@@](F)(CCc2ccc3c(n2)NCCC3)C1)C(=O)O)c1cc(F)cc(C(F)(F)F)c1 [Compound 105]	50 to 250
CC(C)(O)CN1CCC[C@H]1C(=O)N[C@@H](CCN1CC[C@@H](CCc2ccc3c(n2)NCCC3)C1)C(=O)O [Compound 77]	< 50
CC(C)(Cc1ccccc1)C(=O)N[C@@H](CCN1CC[C@@H](OCCc2ccc3c(n2)NCCC3)C1)C(=O)O [Compound 119]	250 to 1000
Cn1ncc2ccc(C(=O)N[C@@H](CCN3CCC[C@](F)(CCc4ccc5c(n4)NCCC5)C3)C(=O)O)cc21 [Compound 110]	< 50
O=C(N[C@@H](CCN1CC[C@@H](OCCc2ccc3c(n2)NCCC3)C1)C(=O)O)[C@@H]1CCN(c2ccccn2)C1 [Compound 125]	250 to 1000
O=C(N[C@@H](CCN1CC[C@](F)(CCc2ccc3c(n2)NCCC3)C1)C(=O)O)c1c(Cl)cccc1Cl [Compound 64]	50 to 250
O=C(N[C@@H](CCN1CC[C@@H](CCc2ccc3c(n2)NCCC3)C1)C(=O)O)c1cccc(-c2ncco2)c1 [Compound 59]	< 50
O=C(N[C@@H](CCN1CC(CCc2ccc3c(n2)NCCC3)C1)C(=O)O)c1c(Cl)cccc1Cl [Compound 139]	250 to 1000
O=C(N[C@@H](CCN1CC[C@@H](CCc2ccc3c(n2)NCCC3)C1)C(=O)O)C1CCC(F)(F)CC1 [Compound 21a, (S)-2-(4,4-difluorocyclohexane-1-carboxamido)-4-((R)-3-(2-(5,6,7,8-tetrahydro-1,8-naphthyridin-2-yl)ethyl)pyrrolidin-1-yl)butanoic acid]	< 50
CC(C)(C)C(=O)N1CCC[C@@H](C(=O)N[C@@H](CCN2CC[C@@H](CCc3ccc4c(n3)NCCC4)C2)C(=O)O)C1 [Compound 79]	< 50
CC(C)(C)OC(=O)N[C@@H](CCN1CC[C@@H](OCc2ccc3c(n2)NCCC3)C1)C(=O)O [Compound 111]	> 1000
O=C(N[C@@H](CCN1CC[C@@H](CCc2ccc3c(n2)NCCC3)C1)C(=O)O)c1cccc2cn[nH]c12 [Compound 26a, (S)-2-(1H-indazole-7-carboxamido)-4-((R)-3-(2-(5,6,7,8-tetrahydro-1,8-naphthyridin-2-yl)ethyl)pyrrolidin-1-yl)butanoic acid]	< 50
O=C(N[C@@H](CCN1CC[C@@H](OCCc2ccc3c(n2)NCCC3)C1)C(=O)O)c1c(Cl)cccc1Cl [Compound 114]	250 to 1000
CC(C)n1ncc2c(C(=O)N[C@@H](CCN3CC[C@@H](CCc4ccc5c(n4)NCCC5)C3)C(=O)O)cccc21 [Compound 60]	< 50
O=C(Cc1ccccc1Cl)N[C@@H](CCN1CC[C@@H](CCc2ccc3c(n2)NCCC3)C1)C(=O)O [Compound 75]	< 50
N#Cc1cc(Cl)c(C(=O)NC(CCN2CC[C@@H](CCc3ccc4c(n3)NCCC4)C2)C(=O)O)c(Cl)c1 (stereo partly shown) [7a and 7c]	< 50
CC(C)(C)OC(=O)N[C@@H](CCN1CC(CCc2ccc3c(n2)NCCC3)CC(F)(F)C1)C(=O)O (stereo partly shown) [Compound 40]	250 to 1000
O=C(N[C@@H](CCN1CCC[C@](F)(CCc2ccc3c(n2)NCCC3)C1)C(=O)O)c1cc(F)cc(F)c1 [Compound 104]	< 50
O=C(N[C@H](CCN1CC[C@@H](CCc2ccc3c(n2)NCCC3)C1)C(=O)O)c1cccc(-c2ncco2)c1 [Compound 88]	< 50
CCCCC(=O)N1CCCC[C@H]1C(=O)N[C@@H](CCN1CC[C@@H](CCc2ccc3c(n2)NCCC3)C1)C(=O)O [Compound 73]	< 50
Cn1cc(-c2cccc(C(=O)N[C@@H](CCN3CC[C@@H](CCc4ccc5c(n4)NCCC5)C3)C(=O)O)c2)cn1 [Compound 58]	< 50
O=C(N[C@@H](CCN1CCC[C@@](F)(CCc2ccc3c(n2)NCCC3)C1)C(=O)O)c1cc(F)cc(F)c1 [Compound 97]	50 to 250
O=C(N[C@@H](CCN1CC(OCCc2ccc3c(n2)NCCC3)C1)C(=O)O)C1CCOCC1 [Compound 124]	50 to 250

SMILES	IC50 [nM]
CC(C)(Cc1ccccc1)C(=O)N[C@@H](CCN1CC(OCCc2ccc3c(n2)NCCC3)C1)C(=O)O [Compound 130]	250 to 1000
O=C(O)[C@H](CCN1CC(OCCc2ccc3c(n2)NCCC3)C1)NC(=O)[C@@H]1CCCN1Cc1ccccc1 [Compound 123]	< 50
CC(C)(C(=O)N[C@@H](CCN1CC[C@@H](CCc2ccc3c(n2)NCCC3)C1)C(=O)O)c1ccccc1 [Compound 44]	< 50
COC(=O)N1CCC[C@@H](C(=O)N[C@@H](CCN2CC[C@@H](CCc3ccc4c(n3)NCCC4)C2)C(=O)O)C1 [Compound 80]	< 50
O=C(NC(CCN1CC[C@@H](CCc2ccc3c(n2)NCCC3)C1)C(=O)O)c1c(Cl)cncc1Cl (stereo partly shown) [20a and 20c]	< 50
O=C(N[C@H](CCN1CC[C@@H](CCc2ccc3c(n2)NCCC3)C1)C(=O)O)c1cccc(-c2ccccc2)c1 [Compound 83]	< 50
CC(C)(O)CC1NCCC1C(=O)N[C@@H](CCN1CC(OCCc2ccc3c(n2)NCCC3)C1)C(=O)O (stereo partly shown) [Compound 134]	250 to 1000
Cn1ncc2cc(C(=O)N[C@@H](CCN3CC[C@@H](CCc4ccc5c(n4)NCCC5)C3)C(=O)O)ccc21 [Compound 25a, (S)-2-(1-methyl-1H-indazole-5-carboxamido)-4-((R)-3-(2-(5,6,7,8-tetrahydro-1,8-naphthyridin-2-yl)ethyl)pyrrolidin-1-yl)butanoic acid]	50 to 250
O=C(N[C@@H](CCN1CC[C@@H](CCc2ccc3c(n2)NCCC3)C1)C(=O)O)C1CCOCC1 [Compound 38]	< 50
Cn1ncc2cccc(C(=O)N[C@@H](CCN3CC[C@@H](CCc4ccc5c(n4)NCCC5)C3)C(=O)O)c21 [Compound 28a, (S)-2-(1-methyl-1H-indazole-7-carboxamido)-4-((R)-3-(2-(5,6,7,8-tetrahydro-1,8-naphthyridin-2-yl)ethyl)pyrrolidin-1-yl)butanoic acid]	< 50
CC(C)(C(=O)N[C@@H](CCN1CC[C@@H](OCCc2ccc3c(n2)NCCC3)C1)C(=O)O)c1cccnc1 [Compound 122]	250 to 1000
Cn1ncc2ccc(C(=O)N[C@@H](CCN3CC[C@@H](CCc4ccc5c(n4)NCCC5)C3)C(=O)O)cc21 [Compound 24a, (S)-2-(1-methyl-1H-indazole-6-carboxamido)-4-((R)-3-(2-(5,6,7,8-tetrahydro-1,8-naphthyridin-2-yl)ethyl)pyrrolidin-1-yl)butanoic acid]	< 50
Cn1ncc2c(C(=O)N[C@@H](CCN3CC[C@@H](CCc4ccc5c(n4)NCCC5)C3)C(=O)O)cccc21 [Compound 27a, (S)-2-(1-methyl-1H-indazole-4-carboxamido)-4-((R)-3-(2-(5,6,7,8-tetrahydro-1,8-naphthyridin-2-yl)ethyl)pyrrolidin-1-yl)butanoic acid]	< 50
CCC(CC)C(=O)N[C@@H](CCN1C2CCC1C(CCc1ccc3c(n1)NCCC3)C2)C(=O)O (stereo partly shown) [Compound 145]	> 1000
O=C(O)[C@H](CCN1CC[C@@H](CCc2ccc3c(n2)NCCC3)C1)NC(=O)[C@@H]1CCCN1CC1CCC1 [Compound 92]	< 50
Cc1cc(C)n(-c2cccc(C(=O)N[C@@H](CCN3CCC[C@@](F)(CCc4ccc5c(n4)NCCC5)C3)C(=O)O)c2)n1 [Compound 53]	< 50
O=C(N[C@@H](CCN1CC[C@@H](CCc2ccc3c(n2)NCCC3)C1)C(=O)O)c1cc(F)cc(C(F)(F)F)c1 [Compound 76]	< 50
Cc1cc(C)n(-c2cccc(C(=O)N[C@@H](CCN3CC[C@@H](CCc4ccc5c(n4)NCCC5)C3)C(=O)O)c2)n1 [Compound 13a, (S)-2-(3-(3,5-dimethyl-1H-pyrazol-1-yl)benzamido)-4-((R)-3-(2-(5,6,7,8-tetrahydro-1,8-naphthyridin-2-yl)ethyl)pyrrolidin-1-yl)butanoic acid]	< 50
O=C(N[C@@H](CCN1CC[C@@H](CCc2ccc3c(n2)NCCC3)C1)C(=O)O)c1ccc(C(F)(F)F)cc1 [Compound 10a, (S)-4-((R)-3-(2-(5,6,7,8-tetrahydro-1,8-naphthyridin-2-yl)ethyl)pyrrolidin-1-yl)-2-(4-(trifluoromethyl)benzamido)butanoic acid]	< 50
O=C(N[C@@H](CCN1CC[C@@H](CCc2ccc3c(n2)NCCC3)C1)C(=O)O)c1cccs1 [Compound 51]	< 50
O=C(O)[C@H](CCN1CC[C@@H](CCc2ccc3c(n2)NCCC3)C1)NC(=O)[C@@H]1CCCN1Cc1ccccc1 [Compound 36]	< 50
O=C(N[C@H](CCN1CC[C@H](CCc2ccc3c(n2)NCCC3)C1)C(=O)O)c1c(Cl)cccc1Cl [Compound 147]	> 1000
O=C(N[C@@H](CCN1CC[C@@H](CCc2ccc3c(n2)NCCC3)C1)C(=O)O)c1cccc(F)c1Cl [Compound 5a, (S)-2-(2-chloro-3-fluorobenzamido)-4-((R)-3-(2-(5,6,7,8-tetrahydro-1,8-naphthyridin-2-yl)ethyl)pyrrolidin-1-yl)butanoic acid]	< 50
O=C(N[C@@H](CCN1C2CCC1C(CCc1ccc3c(n1)NCCC3)C2)C(=O)O)c1cc(F)cc(C(F)(F)F)c1 (stereo partly shown) [Compound 141]	< 50
